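The compound was tested at five concentrations on cells cultured in 96-well plates, with a 48-hour exposure period. GI50 marks 50% less growth. TGI: concentration producing complete growth inhibition.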
Assays:
Assay in all cases: DTP human tumour cell line panel, 48 h
[1] = tested on: SF-539 CNS
[2] = tested on: OVCAR-4 ovarian
[3] = tested on: U251 CNS
[4] = tested on: UO-31 renal
[5] = tested on: COLO 205 colon
[6] = tested on: RXF 393 renal
[7] = tested on: NCI-H226 lung
[8] = tested on: RPMI-8226 leukemia
[9] = tested on: SN12C renal
[10] = tested on: HS 578T breast

SMILES	TGI [1] [µM]	TGI [2] [µM]	TGI [3] [µM]	TGI [4] [µM]	TGI [5] [µM]	TGI [6] [µM]	TGI [7] [µM]	TGI [8] [µM]	TGI [9] [µM]	TGI [10] [µM]	GI50 [10] [µM]	GI50 [3] [µM]	GI50 [4] [µM]	GI50 [6] [µM]	GI50 [7] [µM]
O=C(OCc1ccccc1C1CSCSC1)c1cc(C(=O)OCc2ccccc2C2CSCSC2)c(C(=O)OCc2ccccc2C2CSCSC2)cc1C(=O)OCc1ccccc1C1CSCSC1	> 100	> 100	> 100	> 100	> 100	> 100	> 100	> 100	> 100						
COC(=O)c1ccc(/C=C2\CCc3ccccc3C2=O)cc1	> 100	> 100	> 100	> 100	> 100	> 100	> 100	> 100	> 100	> 100					
C=C[C@@](C)(/C=C/c1ccc(O)cc1)CCC=C(C)C		28.6	30.6	32.4	33.1		35.4	32.3	35.3	46.9					
C/C(=N\Nc1ccccc1)C(CN(C)C)C(c1ccccc1)c1c(O)c2ccccc2oc1=O (stereo not given)	> 100	> 100	> 100	> 100	> 100	> 100	> 100	> 100	> 100	> 100					
O=c1oc2ccc(Cl)cc2cc1-c1cn2ccsc2n1	> 100	> 100	> 100	> 100	93.6	> 100		> 100	> 100	> 100					
C=C1CC(Cn2cc(Br)c(=O)[nH]c2=O)(c2ccc(-c3ccccc3)cc2)OC1=O (stereo not given)	3.92	4.64	18.4	3.93	2.23		4.31	0.574	4.67	> 20.5					
COc1ccc(C2=C(OC(=O)N(C)C)c3cccn3-c3cc(Cl)ccc3S2)cc1		> 10			> 10	> 10		> 10	> 10						
Cc1cc2n([O-])cccc-2[n+](=O)c1	> 100	> 100	> 100	> 100	> 100	> 100	> 100	> 100	> 100						
CC12CC(C/C1=N/O)C(C)(C)C2 (stereo not given)	> 100	> 100	> 100	> 100	> 100	> 100	> 100		> 100	> 100					
CO[P@]1(=O)O[C@@H](c2ccccc2)[C@H](O)[C@@]1(O)c1ccccc1	> 100	> 100	> 100	> 100	> 100	> 100	> 100		> 100						
NS(=O)(=O)c1cc(S(N)(=O)=O)c(NC(=O)N(c2ccccc2)c2ccccc2)c(Cl)c1Cl		> 100	> 100	94.1	42.2		53.7	44.6	57.6	44.9					
c1ccc([P+](c2ccccc2)(c2ccccc2)c2ccc([P+](c3ccccc3)(c3ccccc3)c3ccccc3)cc2)cc1	81.5		> 100	> 100	50.8	> 100	> 100	> 100	> 100	> 100					
O=S1(=O)OCCOS(=O)(=O)C1Cc1nc2ccccc2[nH]1		> 100	> 100	> 100	> 100			> 100	> 100						
COc1ccc(/C=C2\CCC(CNc3ccc(Br)cc3)C2=O)cc1 (stereo not given)		> 100	> 100	> 100	> 100	> 100	> 100	33.3	> 100						
CC(=O)CC1(C)OC(N)=C(C#N)C1(C#N)C#N (stereo not given)	> 100		> 100	> 100	> 100	> 100	> 100	> 100	> 100	> 100					
COC(=O)C(C(=O)C(=O)NC1Nc2ccc(C)cc2S1)c1nc2ccc(Cl)cc2[nH]c1=O (stereo not given)	> 100	> 100	> 100	> 100		> 100	> 100	> 100	> 100	> 100					
CCN(CC)CCCCC1CCN(CC(=O)N2c3ccccc3NC(=O)CC2C)CC1 (stereo not given)	> 100	> 100	> 100	> 100	> 100	> 100	> 100	> 100	> 100						
COC(=O)c1c(OC)cc2cc3c(c(O)c2c1C)C(=O)C1(O)C(=O)C=C(OC)C(OC(=O)CC(C)N)=C1C3=O (stereo not given)	> 100	90.1	> 100	> 100	> 100			39.7	> 100	96.6					
Cc1cc([N+](=O)[O-])c(S(=O)(=O)c2ccccc2)c([N+](=O)[O-])c1	32.6	24.5	26.6	31	24	4.8	41.9	45.9	18.3						
CC(c1ccccc1)N1CC(C)(c2ccccc2)N(O)C(c2ccccc2)C1C (stereo not given)	26.5		32.7	10.2	23.7	36.8		62.8							
COc1cc2cc(C(=O)N3CC(CCl)c4c3cc([N+](C)(C)Cc3ccc([N+](=O)[O-])n3C)c3ccccc43)[nH]c2c(OC)c1OC (stereo not given)	14.3	6.35	> 100		7.36			8.31	> 62.4	38.2					
CCCCCCOc1ccc(C(=N)N(CCCC)CCCC)c2ccccc12			2.97	2.55		2.74	3.07			3.76	1.61	1.5	1.14	1.28	1.53
CC(C)(C)c1ccc(-c2nnc(-c3cc(C#N)cc(-c4nnc(-c5ccc(C(C)(C)C)cc5)o4)c3)o2)cc1		> 100	> 100	> 100	> 100	96.9	> 100	> 100	> 100	> 100					

SMILES	TGI [1] [µM]	TGI [2] [µM]	TGI [3] [µM]	TGI [4] [µM]	TGI [5] [µM]	TGI [6] [µM]	TGI [7] [µM]	TGI [8] [µM]	TGI [9] [µM]	TGI [10] [µM]	GI50 [10] [µM]	GI50 [3] [µM]	GI50 [4] [µM]	GI50 [6] [µM]	GI50 [7] [µM]
N#CCCC1(CCC#N)CCCCCCC(CCC#N)(CCC#N)C(O)C1O (stereo not given)	> 100	> 100	> 100	> 100	> 100	> 100	> 100		> 100						
CC1(C)COC(c2c(-c3ccccc3)noc2CS(=O)c2ccccc2)=N1 (stereo not given)	> 100	> 100	> 100	> 100	> 100	> 100	> 100	> 100	> 100						
[N-]=[N+]=C(C(=O)C(=[N+]=[N-])C(=O)c1ccccc1)C(=O)c1ccccc1	> 100			> 100	> 100	> 100		> 100	> 100	> 100					
OC12CCCCCC1(N1CCOCC1)c1ccccc12 (stereo not given)	> 100	> 100	> 100	> 100	> 100	> 100	> 100	> 100	> 100						
C/C(=C\Cc1cc(O)ccc1O)CCc1c(C)cc(O)c(C=O)c1C	38.3	> 100	67.6	78.1	33.4	37.1	78.5	> 100	92.4						
CCOC1=C2NC(Cc3ccc(F)cc3)=NC2C(=O)c2ccccc21 (stereo not given)	36		> 100	25.1	87.5	73.5		37.8							
COC(=O)C(NC(=O)CSc1nnc(COc2ccc(Cl)cc2)n1-c1ccccc1)C(C)C (stereo not given)	> 100	74.1	> 100	> 100	48.6	57.5	33		37.1						
Cc1cc(S(=O)(=O)O)c(NC(=O)c2oc3cc(O)ccc3c(=O)c2C)cc1Cl	> 100	> 100	> 100	> 100		> 100	> 100	> 100	> 100	> 100					
COc1cccc(CN(C(=O)/C=C\Sc2ccccc2)C(C)(C)C)c1	> 100	> 100	> 100	> 100	> 100		> 100		> 100						
CC12CC(c3ccccc3O1)C(C(=O)Nc1cccc(F)c1)C(=O)N2 (stereo not given)	> 100	> 100	> 100	24.9	> 100			> 100		> 100					
COc1ccc(-c2c3ccccc3c(-c3ccc(OCCCCCBr)cc3)c3ccccc23)cc1	> 100	> 100		> 100	> 100		> 100	> 100	> 100						
Cc1cc2occ(-c3ccc(Cl)cc3)c2c(=O)o1	> 100	> 100	> 100	> 100	> 100	> 100	> 100	> 100	> 100						
c1ccc(OCCSCCCCCCCCCCSCCOc2ccccc2)cc1	> 100		> 100	> 100	> 100	> 100	> 100	> 100	> 100						
CC1(C)CCC2(C(=O)OC3OC(CO)C(O)C(O)C3O)CCC3(CO)C(=CCC4C5(C)CC(O)C(O)C(C)(C(=O)OC6OC(CO)C(O)C(O)C6O)C5CCC43C)C2C1 (stereo not given)	> 100	> 100	> 100	> 100	> 100	> 100	> 100		> 100	> 100					
CNc1ccc(S(=O)Nc2ccccc2)cc1 (stereo not given)	> 100	> 100	> 100	> 100	83.5		> 100	> 100	> 100	> 100					
Cc1c2cccc-2ccc2c1[nH]c1ccccc12	3.42	5.09	3.17	3.14	3.68	9.42	3.92	8.28	7.01						
CCOC(=O)c1nc2ccccc2nc1NCc1ccc(Cl)cc1Cl	> 100	> 100	> 100	> 100	> 100	> 100	> 100	> 100		> 100					
CC(=O)Nc1ccc(C(=O)N2N=C(C)/C(=C/c3ccc(O)cc3)C2=O)cc1	> 100	> 100	> 100	> 100	> 100		> 100	> 100	> 100						
Cc1ccc2c(c1)CC1(C2=O)[C@H](c2ccccc2)C2C(=O)c3ccc(C)cc3C2[C@H]1c1ccccc1 (stereo not given in full)	> 100	> 100	> 100	> 100	> 100	> 100	> 100		> 100						
C=CCOC(=O)CCCCCCCCCCCCCCCOC(=O)C1=C(CCC[C@@H](C)O[Si](C)(C)C(C)(C)C)NC(=O)N2[C@H](CC3(CC/C=C\[C@H](CC)O[Si](C(C)C)(C(C)C)C(C)C)OCCO3)CC[C@H]12	> 100	> 100	> 100	> 100	> 100		> 100	> 100	> 100						
Nc1c(N=Nc2ccc(-c3ccc(N=Nc4c(O)ccc5cc(S(=O)(=O)O)cc(S(=O)(=O)O)c45)cc3)cc2)c(S(=O)(=O)O)cc2cc(S(=O)(=O)O)c(N=Nc3ccccc3)c(O)c12	> 100	> 100	> 100		> 100	> 100	> 95	> 100	> 100						
O=C(CSc1nc2ccc(I)cc2c(=O)n1Cc1ccccc1)NN1C(=O)CCC1=O	> 100	75.9	> 100		> 100	62.5	84.6	> 100	> 100						
O=C1CSc2nnc(CCCCCCCCc3nnc4n3NC(=O)CS4)n2N1	> 100	> 100	> 100	> 100	> 100		> 100	> 100	> 100						
